Source: EP0048168A2, “7-Acylamino cephalosporin compounds, their preparation and pharmaceutical formulations containing them” (ELI LILLY AND COMPANY, priority 1980, dated 1982)
≈ marks a conversion by molar mass, not a printed value. Where two headings read alike, the source gives them in different places.

What was measured:
Test in all cases: In vitro antibacterial activity, agar dilution technique using serial dilution
Format in all cases: cell-based
[1] = test system: Bordetella bronchoseptica; details: Bordetella bronchoseptica strain 16; read-out: Minimum Inhibitory Concentration
Procedure: (§1) The antibacterial activity of the compounds of the invention is illustrated by the in vitro activity of a preferred compound, 7β-[α-methoxyimino-α-(2-amino-1,3-thiazol-4-yl)acetamido]-3-(1-cyanomethyl-1H-tetrazol-5-ylthiomethyl)-3-cephem-4-carboxylic acid, against a wide spectrum of microorganisms. The activity was determined by the agar dilution technique using serial dilution.

[2] = test system: Citrobacter freundii; details: Citrobacter freundii strain CF17; read-out: Minimum Inhibitory Concentration
Procedure: as §1

[3] = test system: Enterobacter aerogenes; details: Klebsiella aerogenes, read-out: Minimum Inhibitory Concentration
Procedure: as §1

[4] = test system: Enterobacter cloacae
Procedure: as §1

[5] = test system: Escherichia coli
Procedure: as §1

[6] = test system: Haemophilus influenzae; details: read-out: Minimum Inhibitory Concentration
Procedure: as §1

[7] = test system: Klebsiella sp.; details: Klebsiella sp. strain KAE; read-out: Minimum Inhibitory Concentration
Procedure: as §1

[8] = test system: Proteus inconstans; details: Providencia alcalifaciens; Proteus inconstans strain PR33; read-out: Minimum Inhibitory Concentration
Procedure: as §1

[9] = test system: Proteus morganii; details: Morganella morganii; Proteus morganii strain PR15; read-out: Minimum Inhibitory Concentration
Procedure: as §1

[10] = test system: Proteus rettgeri; details: Providencia rettgeri
Procedure: as §1

[11] = test system: Pseudomonas aeruginosa
Procedure: as §1

[12] = test system: Salmonella sp.
Procedure: as §1

[13] = test system: Serratia marcescens
Procedure: as §1

[14] = test system: Shigella sonnei; details: Shigella sonnei strain N9; read-out: Minimum Inhibitory Concentration
Procedure: as §1

[15] = test system: Staphylococcus aureus
Procedure: as §1

[16] = test system: Staphylococcus epidermidis
Procedure: as §1

[17] = test system: Streptococcus Group A; details: Streptococcus Group A strain C203; read-out: Minimum Inhibitory Concentration
Procedure: as §1

[18] = test system: Streptococcus Group D; details: read-out: Minimum Inhibitory Concentration
Procedure: as §1

[19] = test system: Streptococcus pneumoniae; details: Streptococcus pneumoniae strain Park; read-out: Minimum Inhibitory Concentration
Procedure: as §1

**Q.** With `CO/N=C(\C(=O)N[C@@H]1C(=O)N2C(C(=O)O)=C(CSc3nnnn3CC#N)CS[C@H]12)c1csc(N)n1` [syn 7β-[α-Methoximino-α-(2-amino-1,3-thiazol-4-yl)-acetamido]-3-(1-cyanomethyl-1H-tetrazol-5-ylthiomethyl)-3-cephem-4-carboxylic acid] as the molecule, how does the MIC [1] read?
**A.** The MIC was 64 µg/mL (≈ 119 µM).

**Q.** What about the MIC [2] of the same molecule?
**A.** The MIC was 8 µg/mL (≈ 14.9 µM).

**Q.** What about the MIC ([3]; Enterobacter aerogenes strain EB17) of the same molecule?
**A.** Its MIC is 0.25 µg/mL (≈ 0.466 µM).

**Q.** What about the MIC ([3]; Enterobacter aerogenes strain X68) of the same molecule?
**A.** The MIC was 0.06 µg/mL (≈ 0.112 µM).

**Q.** What about the MIC [3] of the same molecule?
**A.** Its MIC is 0.125 µg/mL (≈ 0.233 µM).

**Q.** And the MIC ([4]; Enterobacter cloacae strain 265A, read-out: Minimum Inhibitory Concentration)?
**A.** The MIC was 32 µg/mL (≈ 59.6 µM).

**Q.** What about the MIC ([4]; Enterobacter cloacae strain EB5, read-out: Minimum Inhibitory Concentration) of the same molecule?
**A.** Its MIC is 1 µg/mL (≈ 1.86 µM).

**Q.** And the MIC ([5]; Escherichia coli strain EC14, read-out: Minimum Inhibitory Concentration)?
**A.** The MIC was 0.06 µg/mL (≈ 0.112 µM).

**Q.** And the MIC ([5]; Escherichia coli strain N10, read-out: Minimum Inhibitory Concentration)?
**A.** Its MIC is 0.25 µg/mL (≈ 0.466 µM).

**Q.** And the MIC ([5]; Escherichia coli strain TEM, read-out: Minimum Inhibitory Concentration)?
**A.** Its MIC is 0.06 µg/mL (≈ 0.112 µM).

**Q.** What about the MIC ([6]; Haemophilus influenzae strain 76, resistant strain of H. influenzae) of the same molecule?
**A.** The MIC was 0.015 µg/mL (≈ 0.028 µM).

**Q.** And the MIC ([6]; Haemophilus influenzae strain C.L., sensitive strain of H. influenzae)?
**A.** The MIC was 0.03 µg/mL (≈ 0.0559 µM).

**Q.** And the MIC [7]?
**A.** The MIC was 2 µg/mL (≈ 3.73 µM).

**Q.** What about the MIC [8] of the same molecule?
**A.** The MIC was 0.125 µg/mL (≈ 0.233 µM).

**Q.** What about the MIC [9] of the same molecule?
**A.** Its MIC is 0.06 µg/mL (≈ 0.112 µM).

**Q.** And the MIC ([10]; read-out: Minimum Inhibitory Concentration, Proteus rettgeri strain C24)?
**A.** The MIC was 0.125 µg/mL (≈ 0.233 µM).

**Q.** And the MIC ([10]; Proteus rettgeri strain PR7, read-out: Minimum Inhibitory Concentration)?
**A.** Its MIC is 0.06 µg/mL (≈ 0.112 µM).

**Q.** And the MIC ([11]; Pseudomonas aeruginosa strain Ps18, read-out: Minimum Inhibitory Concentration)?
**A.** Its MIC is 32 µg/mL (≈ 59.6 µM).

**Q.** And the MIC ([11]; Pseudomonas aeruginosa strain X239, read-out: Minimum Inhibitory Concentration)?
**A.** Its MIC is 16 µg/mL (≈ 29.8 µM).

**Q.** What about the MIC ([11]; Pseudomonas aeruginosa strain X528, read-out: Minimum Inhibitory Concentration) of the same molecule?
**A.** Its MIC is 16 µg/mL (≈ 29.8 µM).

**Q.** And the MIC ([12]; Salmonella sp. strain 1335, read-out: Minimum Inhibitory Concentration)?
**A.** The MIC was 0.5 µg/mL (≈ 0.932 µM).

**Q.** What about the MIC ([12]; Salmonella sp. strain X514, read-out: Minimum Inhibitory Concentration) of the same molecule?
**A.** The MIC was 0.125 µg/mL (≈ 0.233 µM).

**Q.** What about the MIC ([13]; Serratia marcescens strain 3E3, read-out: Minimum Inhibitory Concentration) of the same molecule?
**A.** The MIC was 0.25 µg/mL (≈ 0.466 µM).

**Q.** And the MIC ([13]; Serratia marcescens, read-out: Minimum Inhibitory Concentration, Serratia marcescens strain X93)?
**A.** The MIC was 0.125 µg/mL (≈ 0.233 µM).

**Q.** And the MIC [14]?
**A.** The MIC was 0.125 µg/mL (≈ 0.233 µM).

**Q.** And the MIC ([15]; Staphylococcus aureus strain V41, read-out: Minimum Inhibitory Concentration)?
**A.** Its MIC is 4 µg/mL (≈ 7.45 µM).

**Q.** And the MIC ([15]; Staphylococcus aureus strain X1.1, read-out: Minimum Inhibitory Concentration)?
**A.** The MIC was 1 µg/mL (≈ 1.86 µM).

**Q.** What about the MIC ([15]; Staphylococcus aureus strain X400, read-out: Minimum Inhibitory Concentration) of the same molecule?
**A.** Its MIC is 32 µg/mL (≈ 59.6 µM).

**Q.** What about the MIC ([15]; read-out: Minimum Inhibitory Concentration) of the same molecule?
**A.** The MIC was 8 µg/mL (≈ 14.9 µM).

**Q.** And the MIC ([16]; Staphylococcus epidermidis strain EPI1, read-out: Minimum Inhibitory Concentration)?
**A.** Its MIC is 4 µg/mL (≈ 7.45 µM).

**Q.** And the MIC ([16]; Staphylococcus epidermidis strain EPI2, read-out: Minimum Inhibitory Concentration)?
**A.** The MIC was 8 µg/mL (≈ 14.9 µM).

**Q.** What about the MIC [17] of the same molecule?
**A.** The MIC was 0.015 µg/mL (≈ 0.028 µM).

**Q.** And the MIC ([18]; Streptococcus Group D strain 9960)?
**A.** The MIC was 128 µg/mL (≈ 239 µM).

**Q.** What about the MIC ([18]; Streptococcus Group D strain X66) of the same molecule?
**A.** The MIC was over 128 µg/mL.

**Q.** What about the MIC [19] of the same molecule?
**A.** The MIC was 0.03 µg/mL (≈ 0.0559 µM).
